Experimental data reported in PubChem BioAssay AID504893 (The Scripps Research Institute Molecular Screening Center, 2011).

Biological target: cAMP-dependent protein kinase type II-beta regulatory subunit (Homo sapiens) (UniProt P31323)
Experiment: activators of PKA-R2B holoenzyme, dose response, selectivity assay for PKA-R1A activator project, biochemical, fluorescence polarization, EC50, human R2B (AID 504893)
Conditions: Cy5-IP20 fluorescence polarization activation

Chain of cAMP-dependent protein kinase type II-beta regulatory subunit (Homo sapiens) (P31323 whole entry, looked up): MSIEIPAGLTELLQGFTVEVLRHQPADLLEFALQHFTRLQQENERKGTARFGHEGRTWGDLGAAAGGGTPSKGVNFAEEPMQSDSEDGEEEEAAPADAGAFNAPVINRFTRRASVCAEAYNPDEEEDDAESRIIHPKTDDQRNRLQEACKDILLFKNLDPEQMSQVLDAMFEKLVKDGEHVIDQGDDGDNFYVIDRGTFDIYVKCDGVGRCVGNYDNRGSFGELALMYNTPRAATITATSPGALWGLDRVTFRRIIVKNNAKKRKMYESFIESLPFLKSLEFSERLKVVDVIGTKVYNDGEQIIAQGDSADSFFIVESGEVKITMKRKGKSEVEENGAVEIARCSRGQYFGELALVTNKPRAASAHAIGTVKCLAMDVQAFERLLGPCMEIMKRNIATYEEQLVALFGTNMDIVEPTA

| SMILES | EC50 [nM] |
| --- | --- |
| Nc1ncnc2c1nc(Sc1ccc(Cl)cc1)n2[C@@H]1O[C@@H]2COP(=O)(O)O[C@H]2[C@H]1O | 50.5 |
| Nc1nc2c(nc(Br)n2[C@@H]2O[C@@H]3COP(=O)(O)O[C@H]3[C@H]2O)c(=O)[nH]1 | 2160 |
| Nc1ncnc2c1nc(Br)n2[C@@H]1O[C@@H]2COP(=O)(O)O[C@H]2[C@H]1O | 51.1 |

The remaining lines, values ahead:

| EC50 [nM] | SMILES |
| --- | --- |
| 9100 | CCCC(=O)Nc1ncnc2c1ncn2[C@@H]1O[C@@H]2OP(=O)(O)OC[C@H]2[C@H]1OC(=O)CCC |
| 3750 | CCOP1(=O)OCC2OC(n3cnc4c(N)ncnc43)C(O)C2O1 (stereo not given) |
